From patent US11357230B2, “Herbicidal amides” (FMC Corporation, priority 2017, dated 2022)

Key:
Assay type in all cases: in vivo
[1] = system: corn (Zea mays); assay: Test A postemergence, corn; details: approximately 10 d
Source text: (§1) Seeds of plant species selected from barnyardgrass (Echinochloa crus-galli), kochia (Kochia scoparia), ragweed (common ragweed, Ambrosia elatior), ryegrass, Italian (Italian ryegrass, Lolium multiflorum), foxtail, green (green foxtail, Setaria viridis), and pigweed (Amaranthus retroflexus) were planted into a blend of loam soil and sand and treated preemergence with a directed soil spray using test chemicals formulated in a non-phytotoxic solvent mixture which included a surfactant. At the same time, plants selected from these weed species and also wheat (Triticum aestivum), corn (Zea mays), blackgrass (Alopecurus myosuroides), and galium (catchweed bedstraw, Galium aparine) were planted in pots containing the same blend of loam soil and sand and treated with postemergence applications of test chemicals formulated in the same manner. Plants ranged in height from 2 to 10 cm and were in the one- to two-leaf stage for the postemergence treatment. Treated plants and untreated controls were maintained in a greenhouse for approximately 10 d, after which time all treated plants were compared to untreated controls and visually evaluated for injury. Plant response ratings, summarized in Table A, are based on a 0 to 100 scale where 0 is no effect and 100 is complete control. A dash (-) response means no test result.

[2] = system: kochia (Kochia scoparia); assay: Test A postemergence, kochia; details: approximately 10 d
Source text: as §1

[3] = system: foxtail, green (green foxtail, Setaria viridis); assay: Test A preemergence, green foxtail; details: approximately 10 d
Source text: as §1

[4] = system: pigweed (Amaranthus retroflexus); assay: Test A postemergence, pigweed; details: approximately 10 d
Source text: as §1

[5] = system: barnyardgrass (Echinochloa crus-galli); assay: Test B flooded paddy test, barnyardgrass; details: 250 g ai/ha, Flood (paddy water), 13 to 15 d
Procedure: (§2) Plant species in the flooded paddy test selected from rice (Oryza sativa), sedge, umbrella (small-flower umbrella sedge, Cyperus difformis), ducksalad (Heteranthera limosa), and barnyardgrass (Echinochloa crus-galli) were grown to the 2-leaf stage for testing. At time of treatment, test pots were flooded to 3 cm above the soil surface, treated by application of test compounds directly to the paddy water, and then maintained at that water depth for the duration of the test. Treated plants and controls were maintained in a greenhouse for 13 to 15 d, after which time all species were compared to controls and visually evaluated. Plant response ratings, summarized in Table B, are based on a scale of 0 to 100 where 0 is no effect and 100 is complete control. A dash (-) response means no test result.

[6] = system: blackgrass (Alopecurus myosuroides); assay: Test A postemergence, blackgrass; details: approximately 10 d
Source text: as §1

[7] = system: barnyardgrass (Echinochloa crus-galli); assay: Test A preemergence, barnyardgrass; details: approximately 10 d
Source text: as §1

[8] = system: ducksalad (Heteranthera limosa); assay: Test B flooded paddy test, ducksalad; details: 250 g ai/ha, Flood (paddy water), 13 to 15 d
Procedure: as §2

[9] = system: kochia (Kochia scoparia); assay: Test A preemergence, kochia; details: approximately 10 d
Source text: as §1

[10] = system: foxtail, green (green foxtail, Setaria viridis); assay: Test A postemergence, green foxtail; details: approximately 10 d
Source text: as §1

[11] = system: wheat (Triticum aestivum); assay: Test A postemergence, wheat; details: approximately 10 d
Source text: as §1

[12] = system: ragweed (common ragweed, Ambrosia elatior); assay: Test A postemergence, ragweed; details: approximately 10 d
Source text: as §1

[13] = system: ryegrass, Italian (Italian ryegrass, Lolium multiflorum); assay: Test A preemergence, Italian ryegrass; details: approximately 10 d
Source text: as §1

[14] = system: galium (catchweed bedstraw, Galium aparine); assay: Test A postemergence, galium; details: approximately 10 d
Source text: as §1

[15] = system: sedge, umbrella (small-flower umbrella sedge, Cyperus difformis); assay: Test B flooded paddy test, umbrella sedge; details: 250 g ai/ha, Flood (paddy water), 13 to 15 d
Procedure: as §2

[16] = system: barnyardgrass (Echinochloa crus-galli); assay: Test A postemergence, barnyardgrass; details: approximately 10 d
Source text: as §1

[17] = system: pigweed (Amaranthus retroflexus); assay: Test A preemergence, pigweed; details: approximately 10 d
Source text: as §1

[18] = system: ragweed (common ragweed, Ambrosia elatior); assay: Test A preemergence, ragweed; details: approximately 10 d
Source text: as §1

[19] = system: ryegrass, Italian (Italian ryegrass, Lolium multiflorum); assay: Test A postemergence, Italian ryegrass; details: approximately 10 d
Source text: as §1

[20] = system: rice (Oryza sativa); assay: Test B flooded paddy test, rice; details: 250 g ai/ha, Flood (paddy water), 13 to 15 d
Procedure: as §2

[21] = system: Foxtail, Giant; assay: Test A postemergence, giant foxtail; details: approximately 10 d
[22] = system: Foxtail, Giant; assay: Test A preemergence, giant foxtail; details: approximately 10 d

CN1C[C@H](c2ccc(C(F)(F)F)cc2)[C@@H](C(=O)Nc2cccc(F)c2F)C1=NNC(=O)C(C)(C)C [Compound 1, 2-[(3R,4S)-3-[[(2,3-difluorophenyl)amino]carbonyl]-1-methyl-4-[4-(trifluoromethyl)phenyl]-2-pyrrolidinylidene]hydrazide 2,2-dimethylpropanoic Acid]
Plant response rating (0 to 100 scale, 0 is no effect, 100 is complete control) ([1]; 31 g ai/ha): 0 | Plant response rating (0 to 100 scale, 0 is no effect, 100 is complete control) ([1]; 125 g ai/ha): 40 | Plant response rating (0 to 100 scale, 0 is no effect, 100 is complete control) ([2]; 31 g ai/ha): 0 | Plant response rating (0 to 100 scale, 0 is no effect, 100 is complete control) ([2]; 125 g ai/ha): 0 | Plant response rating (0 to 100 scale, 0 is no effect, 100 is complete control) ([3]; 31 g ai/ha): 50 | Plant response rating (0 to 100 scale, 0 is no effect, 100 is complete control) ([3]; 125 g ai/ha): 100 | Plant response rating (0 to 100 scale, 0 is no effect, 100 is complete control) ([4]; 31 g ai/ha): 0 | Plant response rating (0 to 100 scale, 0 is no effect, 100 is complete control) ([4]; 125 g ai/ha): 0 | Plant response rating (scale of 0 to 100, 0 is no effect, 100 is complete control) [5]: 65 | Plant response rating (0 to 100 scale, 0 is no effect, 100 is complete control) ([6]; 31 g ai/ha): 10 | Plant response rating (0 to 100 scale, 0 is no effect, 100 is complete control) ([6]; 125 g ai/ha): 50 | Plant response rating (0 to 100 scale, 0 is no effect, 100 is complete control) ([7]; 31 g ai/ha): 80 | Plant response rating (0 to 100 scale, 0 is no effect, 100 is complete control) ([7]; 125 g ai/ha): 100 | Plant response rating (scale of 0 to 100, 0 is no effect, 100 is complete control) [8]: 30 | Plant response rating (0 to 100 scale, 0 is no effect, 100 is complete control) ([9]; 31 g ai/ha): 0 | Plant response rating (0 to 100 scale, 0 is no effect, 100 is complete control) ([9]; 125 g ai/ha): 60 | Plant response rating (0 to 100 scale, 0 is no effect, 100 is complete control) ([10]; 31 g ai/ha): 40 | Plant response rating (0 to 100 scale, 0 is no effect, 100 is complete control) ([10]; 125 g ai/ha): 80 | Plant response rating (0 to 100 scale, 0 is no effect, 100 is complete control) ([11]; 31 g ai/ha): 0 | Plant response rating (0 to 100 scale, 0 is no effect, 100 is complete control) ([11]; 125 g ai/ha): 30 | Plant response rating (0 to 100 scale, 0 is no effect, 100 is complete control) ([12]; 31 g ai/ha): 0 | Plant response rating (0 to 100 scale, 0 is no effect, 100 is complete control) ([12]; 125 g ai/ha): 0 | Plant response rating (0 to 100 scale, 0 is no effect, 100 is complete control) ([13]; 31 g ai/ha): 0 | Plant response rating (0 to 100 scale, 0 is no effect, 100 is complete control) ([13]; 125 g ai/ha): 0 | Plant response rating (0 to 100 scale, 0 is no effect, 100 is complete control) ([14]; 31 g ai/ha): 0 | Plant response rating (0 to 100 scale, 0 is no effect, 100 is complete control) ([14]; 125 g ai/ha): 10 | Plant response rating (scale of 0 to 100, 0 is no effect, 100 is complete control) [15]: 0 | Plant response rating (0 to 100 scale, 0 is no effect, 100 is complete control) ([16]; 31 g ai/ha): 40 | Plant response rating (0 to 100 scale, 0 is no effect, 100 is complete control) ([16]; 125 g ai/ha): 80 | Plant response rating (0 to 100 scale, 0 is no effect, 100 is complete control) ([17]; 31 g ai/ha): 50 | Plant response rating (0 to 100 scale, 0 is no effect, 100 is complete control) ([17]; 125 g ai/ha): 90 | Plant response rating (0 to 100 scale, 0 is no effect, 100 is complete control) ([18]; 31 g ai/ha): 0 | Plant response rating (0 to 100 scale, 0 is no effect, 100 is complete control) ([18]; 125 g ai/ha): 100 | Plant response rating (0 to 100 scale, 0 is no effect, 100 is complete control) ([19]; 31 g ai/ha): 20 | Plant response rating (0 to 100 scale, 0 is no effect, 100 is complete control) ([19]; 125 g ai/ha): 60 | Plant response rating (scale of 0 to 100, 0 is no effect, 100 is complete control) [20]: 0

CN1C[C@H](c2ccc(C(F)(F)F)cc2)[C@@H](C(=O)Nc2cccc(F)c2F)C1=NN1CCOCC1 (relative stereo) [Compound 7]
Plant response rating (0 to 100 scale, 0 is no effect, 100 is complete control) ([1]; 31 g ai/ha): 0 | Plant response rating (0 to 100 scale, 0 is no effect, 100 is complete control) ([1]; 125 g ai/ha): 0 | Plant response rating (0 to 100 scale, 0 is no effect, 100 is complete control) ([2]; 31 g ai/ha): 0 | Plant response rating (0 to 100 scale, 0 is no effect, 100 is complete control) ([2]; 125 g ai/ha): 60 | Plant response rating (0 to 100 scale, 0 is no effect, 100 is complete control) ([4]; 31 g ai/ha): 0 | Plant response rating (0 to 100 scale, 0 is no effect, 100 is complete control) ([4]; 125 g ai/ha): 60 | Plant response rating (scale of 0 to 100, 0 is no effect, 100 is complete control) [5]: 10 | Plant response rating (0 to 100 scale, 0 is no effect, 100 is complete control) ([6]; 31 g ai/ha): 30 | Plant response rating (0 to 100 scale, 0 is no effect, 100 is complete control) ([6]; 125 g ai/ha): 30 | Plant response rating (0 to 100 scale, 0 is no effect, 100 is complete control) ([7]; 31 g ai/ha): 10 | Plant response rating (0 to 100 scale, 0 is no effect, 100 is complete control) ([7]; 125 g ai/ha): 50 | Plant response rating (scale of 0 to 100, 0 is no effect, 100 is complete control) [8]: 45 | Plant response rating (0 to 100 scale, 0 is no effect, 100 is complete control) ([9]; 31 g ai/ha): 0 | Plant response rating (0 to 100 scale, 0 is no effect, 100 is complete control) ([9]; 125 g ai/ha): 20 | Plant response rating (0 to 100 scale, 0 is no effect, 100 is complete control) ([11]; 31 g ai/ha): 0 | Plant response rating (0 to 100 scale, 0 is no effect, 100 is complete control) ([11]; 125 g ai/ha): 10 | Plant response rating (0 to 100 scale, 0 is no effect, 100 is complete control) ([12]; 31 g ai/ha): 0 | Plant response rating (0 to 100 scale, 0 is no effect, 100 is complete control) ([12]; 125 g ai/ha): 50 | Plant response rating (0 to 100 scale, 0 is no effect, 100 is complete control) ([13]; 31 g ai/ha): 0 | Plant response rating (0 to 100 scale, 0 is no effect, 100 is complete control) ([13]; 125 g ai/ha): 0 | Plant response rating (0 to 100 scale, 0 is no effect, 100 is complete control) ([14]; 31 g ai/ha): 60 | Plant response rating (0 to 100 scale, 0 is no effect, 100 is complete control) ([14]; 125 g ai/ha): 70 | Plant response rating (scale of 0 to 100, 0 is no effect, 100 is complete control) [15]: 0 | Plant response rating (0 to 100 scale, 0 is no effect, 100 is complete control) ([16]; 31 g ai/ha): 0 | Plant response rating (0 to 100 scale, 0 is no effect, 100 is complete control) ([16]; 125 g ai/ha): 50 | Plant response rating (0 to 100 scale, 0 is no effect, 100 is complete control) ([21]; 31 g ai/ha): 0 | Plant response rating (0 to 100 scale, 0 is no effect, 100 is complete control) ([21]; 125 g ai/ha): 50 | Plant response rating (0 to 100 scale, 0 is no effect, 100 is complete control) ([17]; 31 g ai/ha): 0 | Plant response rating (0 to 100 scale, 0 is no effect, 100 is complete control) ([17]; 125 g ai/ha): 10 | Plant response rating (0 to 100 scale, 0 is no effect, 100 is complete control) ([18]; 31 g ai/ha): 0 | Plant response rating (0 to 100 scale, 0 is no effect, 100 is complete control) ([18]; 125 g ai/ha): 0 | Plant response rating (0 to 100 scale, 0 is no effect, 100 is complete control) ([22]; 31 g ai/ha): 50 | Plant response rating (0 to 100 scale, 0 is no effect, 100 is complete control) ([22]; 125 g ai/ha): 90 | Plant response rating (0 to 100 scale, 0 is no effect, 100 is complete control) ([19]; 31 g ai/ha): 10 | Plant response rating (0 to 100 scale, 0 is no effect, 100 is complete control) ([19]; 125 g ai/ha): 30 | Plant response rating (scale of 0 to 100, 0 is no effect, 100 is complete control) [20]: 0
